Results taken from patent publication US9493468B2, “Antifungal 5,6-dihydro-4H-pyrrolo[1,2-a][1,4]benzo-diazepines and 6H-pyrrolo[1,2-a][1,4]benzodiazepines substituted with heterocyclic derivatives” (Janssen Pharmaceutica NV, priority 2011, dated 2016).

What was measured:
Type in all cases: cell-based
[1] = system: Cryptococcus neoformans; test: Antifungal activity in vitro, resazurin growth inhibition: Cryptococcus neoformans (B66663)
How it was run: (§1)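 Compound dilutions, with 64 μM as the highest in-test level, are spotted onto plates, then an inoculum of 10^3 cfu in RPMI-1640 plus 2% glucose (MOPS, pH 7.0±0.1) is added. Plates are incubated at species-dependent time and temperature, up to a week or more at 27° C. for dermatophytes.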

[2] = system: Trichophyton rubrum; test: Antifungal activity in vitro, resazurin growth inhibition: Trichophyton rubrum (B68183)
How it was run: as §1

[3] = system: Scedosporium apiospermum; test: Antifungal activity in vitro, resazurin growth inhibition: Scedosporium apiospermum (IHEM3817)
How it was run: as §1

[4] = system: Scedosporium prolificans; test: Antifungal activity in vitro, resazurin growth inhibition: Scedosporium prolificans (IHEM21157)
How it was run: as §1

[5] = system: Aspergillus fumigatus; test: Antifungal activity in vitro, resazurin growth inhibition: Aspergillus fumigatus (B42928)
How it was run: as §1

[6] = system: Trichophyton mentagrophytes; test: Antifungal activity in vitro, resazurin growth inhibition: Trichophyton mentagrophytes (B70554)
How it was run: as §1

[7] = system: Candida parapsilosis; test: Antifungal activity in vitro, resazurin growth inhibition: Candida parapsilosis (B66126)
How it was run: as §1

[8] = system: Rhizopus oryzae; test: Antifungal activity in vitro, resazurin growth inhibition: Rhizopus oryzae (IHEM5223)
How it was run: as §1

[9] = system: Rhizomucor miehei; test: Antifungal activity in vitro, resazurin growth inhibition: Rhizomucor miehei (IHEM13391)
How it was run: as §1

[10] = system: Microsporum canis; test: Antifungal activity in vitro, resazurin growth inhibition: Microsporum canis (B68128)
How it was run: as §1

[11] = system: Sporothrix schenkii; test: Antifungal activity in vitro, resazurin growth inhibition: Sporothrix schenkii (B62482)
How it was run: as §1

Row | SMILES | Inf. F: Cryptococcus neoformans B66663, pIC50 [1] | Inf. C: Trichophyton rubrum B68183, pIC50 [2] | Inf. H: Scedosporium apiospermum IHEM3817, pIC50 [3] | Inf. I: Scedosporium prolificans IHEM21157, pIC50 [4] | Inf. E: Aspergillus fumigatus B42928, pIC50 [5] | Inf. G: Trichophyton mentagrophytes B70554, pIC50 [6] | Inf. D: Candida parapsilosis B66126, pIC50 [7] | Inf. J: Rhizopus oryzae IHEM5223, pIC50 [8] | Inf. K: Rhizomucor miehei IHEM13391, pIC50 [9] | Inf. B: Microsporum canis B68128, pIC50 [10] | Inf. A: Sporothrix schenkii B62482, pIC50 [11]
1 | Clc1ccc2oc(C3=NCc4c(Cl)cccc4-n4cccc43)cc2c1 [Compound 121] | <4.19 | 6.82 | 5.97 | 6.15 | 5.52 | 6.86 | <4.19 | 5.77 | 5.58 | 6.96 | 6.11
2 | Fc1ccc2oc(C3=NCc4c(Cl)cccc4-n4cccc43)cc2c1 [Compound 123] | 4.98 | 6.96 | 6.02 | 6.44 | 6.25 | 6.23 | <4.19 | <4.19 | 5.14 | 6.75 | 5.04
3 | Fc1ccc2oc(C3=NCc4c(Cl)cc(Cl)cc4-n4cccc43)cc2c1 [Compound 125] | 5.69 | 5.72 | 5.31 | 6.05 | 5.70 | 5.55 | <4.19 | <4.19 | <4.19 | 5.85 | 4.91
4 | Clc1cccc2c1CN=C(c1cc3cccc(Cl)c3o1)c1cccn1-2 [Compound 126] | 5.18 | 6.87 | 5.45 | 6.64 | 6.29 | 6.34 | <4.19 | <4.19 | <4.19 | 6.33 | <4.19
5 | Fc1cccc2cc(C3=NCc4c(Cl)cccc4-n4cccc43)oc12 [Compound 127] | 5.22 | 6.94 | 4.80 | 6.64 | 6.31 | 6.40 | <4.19 | <4.19 | <4.19 | 6.44 | <4.19
6 | Fc1cc(F)c2oc(C3=NCc4c(Cl)cccc4-n4cccc43)cc2c1 [Compound 128] | 4.69 | 6.87 | <4.19 | 7.10 | 5.99 | 6.30 | <4.19 | <4.19 | <4.19 | 6.02 | <4.19
7 | Cc1cccc2c1CN=C(c1cc3cccc(C)c3o1)c1cccn1-2 [Compound 131] | 6.11 | 7.10 | 5.355 | 5.99 | 6.11 | 6.31 | 4.81 | <4.34 | 4.59 | 6.50 | 5.51

The next lines start with the values.

Row | Inf. F: Cryptococcus neoformans B66663, pIC50 [1] | Inf. C: Trichophyton rubrum B68183, pIC50 [2] | Inf. H: Scedosporium apiospermum IHEM3817, pIC50 [3] | Inf. I: Scedosporium prolificans IHEM21157, pIC50 [4] | Inf. E: Aspergillus fumigatus B42928, pIC50 [5] | Inf. G: Trichophyton mentagrophytes B70554, pIC50 [6] | Inf. D: Candida parapsilosis B66126, pIC50 [7] | Inf. J: Rhizopus oryzae IHEM5223, pIC50 [8] | Inf. K: Rhizomucor miehei IHEM13391, pIC50 [9] | Inf. B: Microsporum canis B68128, pIC50 [10] | Inf. A: Sporothrix schenkii B62482, pIC50 [11] | SMILES
8 | 5.52 | 6.31 | 4.19 | 5.52 | 5.99 | 5.81 | <4.19 | <4.19 | <4.19 | 6.16 | 4.86 | Clc1cc(Cl)c2c(c1)-n1cccc1C(c1cc3ccccc3o1)=NC2 [Compound 120]
9 | 4.69 | 6.86 | <4.19 | 4.62 | 5.38 | 5.55 | <4.19 | <4.19 | <4.19 | 6.90 | 5.42 | Cc1cccc2c1CN=C(c1cc3cc(Cl)ccc3o1)c1cccn1-2 [Compound 122]
10 | 6.32 | 6.22 | <4.19 | 5.90 | 6.25 | 5.75 | <4.19 | 5.08 | <4.19 | 5.63 | 5.10 | Fc1ccc2oc(C3=NCc4ccc(Cl)cc4-n4cccc43)cc2c1 [Compound 124]
11 | 6.31 | 7.69 | 6.01 | 5.08 | 6.00 | 6.79 | 5.35 | 4.95 | 4.91 | 6.70 | 5.50 | Cc1cccc2cc(C3=NCc4ccccc4-n4cccc43)oc12 [Compound 130]
12 | <4.19 | 7.16 | <4.19 | 6.48 | 5.66 | 6.66 | 4.54 | <4.19 | <4.19 | 6.68 | 4.50 | Cc1ccc2oc(C3=NCc4c(Cl)cccc4-n4cccc43)cc2c1 [Compound 134]
13 | 5.10 | 7.18 | 5.16 | 6.21 | 6.00 | 6.89 | 4.74 | 4.48 | 4.50 | 6.81 | 5.52 | Cc1ccc2cc(C3=NCc4ccccc4-n4cccc43)oc2c1 [Compound 137]
